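Assay format: 96-well plates, 48-hour exposure. Abbreviation: GI50, concentration required for 50% inhibition of growth.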 Calls of active or inactive are those of the source. Cut-off read from the data, not from the text of the source: active = GI50 up to about 1.1 µM and inactive = higher.
Experiments:
Assay in all cases: growth of human tumour cells (NCI), 48 h
[1] = tested on: K562
[2] = tested on: BT-549
[3] = tested on: IGROV-1
[4] = tested on: UACC-62
[5] = tested on: SK-MEL-28
[6] = tested on: SF-295
[7] = tested on: HCC 2998
[8] = tested on: SF-539
[9] = tested on: SK-MEL-5
[10] = tested on: HL-60
[11] = tested on: MDA-MB-231
[12] = tested on: MOLT-4
[13] = tested on: UACC-257
[14] = tested on: HCT-116
[15] = tested on: T47D
[16] = tested on: CAKI-1
[17] = tested on: SR
[18] = tested on: TK-10
[19] = tested on: SW-620
[20] = tested on: SK-MEL-2

SMILES	GI50 [1]	GI50 [2]	GI50 [3]	GI50 [4]	GI50 [5]	GI50 [6]	GI50 [7]	GI50 [8]	GI50 [9]	GI50 [10]	GI50 [11]	GI50 [12]	GI50 [13]	GI50 [14]	GI50 [15]	GI50 [16]	GI50 [17]	GI50 [18]	GI50 [19]	GI50 [20]
Cc1ccc(C(=O)N(Cc2ccccc2)Cc2ccccc2)cc1/N=N/N(C)C	27.2 µM (inactive)	18.5 µM (inactive)	40.1 µM (inactive)	13.1 µM (inactive)	19.3 µM (inactive)	9.29 µM (inactive)	29.6 µM (inactive)	18.5 µM (inactive)	10.7 µM (inactive)	22.6 µM (inactive)	22.9 µM (inactive)	26.4 µM (inactive)	6.75 µM (inactive)	8.39 µM (inactive)	14.8 µM (inactive)	6.82 µM (inactive)	27.7 µM (inactive)	33 µM (inactive)	43.1 µM (inactive)	3.08 µM (inactive)
CC#CC(O)(C(=O)OC1CC2CCC(C1)N2C)C1CCCC1 (centres undefined)	> 100 µM (inactive)	> 100 µM (inactive)	> 100 µM (inactive)	> 100 µM (inactive)	> 100 µM (inactive)	> 100 µM (inactive)	> 100 µM (inactive)	> 100 µM (inactive)	> 100 µM (inactive)	> 100 µM (inactive)	> 100 µM (inactive)	> 100 µM (inactive)	> 100 µM (inactive)	> 100 µM (inactive)	> 100 µM (inactive)	> 100 µM (inactive)	> 100 µM (inactive)	> 100 µM (inactive)	> 100 µM (inactive)	> 100 µM (inactive)
O/N=N/c1ccc(Sc2ccc(/N=N/O)cn2)nc1	> 100 µM (inactive)	> 100 µM (inactive)	> 100 µM (inactive)	> 100 µM (inactive)	> 100 µM (inactive)	> 100 µM (inactive)	> 100 µM (inactive)	> 100 µM (inactive)	> 100 µM (inactive)	> 100 µM (inactive)	> 100 µM (inactive)	> 100 µM (inactive)	> 100 µM (inactive)	> 100 µM (inactive)	> 100 µM (inactive)	> 100 µM (inactive)	> 100 µM (inactive)	> 100 µM (inactive)	> 100 µM (inactive)	–
COc1c(O)c(O)c2c(c1O)C(=O)c1cc(C)cc(O)c1C2=O	37.4 µM (inactive)	40.4 µM (inactive)	13.2 µM (inactive)	15.3 µM (inactive)	98.6 µM (inactive)	21.9 µM (inactive)	75.2 µM (inactive)	> 66.5 µM (inactive)	29.9 µM (inactive)	50 µM (inactive)	12.2 µM (inactive)	15.4 µM (inactive)	48.3 µM (inactive)	32.8 µM (inactive)	24.8 µM (inactive)	37.9 µM (inactive)	31.6 µM (inactive)	49.3 µM (inactive)	40 µM (inactive)	> 100 µM (inactive)
CCOC(=O)N1CCc2cc(OC)c(OC)c3c2c1cc1cc(OC)c(OC)cc13	2.91 µM (inactive)	0.577 µM (active)	4.57 µM (inactive)	0.94 µM (active)	4.19 µM (inactive)	0.927 µM (active)	2.29 µM (inactive)	1.69 µM (inactive)	0.499 µM (active)	1.32 µM (inactive)	5.96 µM (inactive)	5.32 µM (inactive)	12.1 µM (inactive)	1.22 µM (inactive)	2.79 µM (inactive)	2.51 µM (inactive)	0.807 µM (active)	7.98 µM (inactive)	1.15 µM (inactive)	2.24 µM (inactive)
CC(=N\N)/C(C)=N/N=C(C)/C(C)=N/N=C(C)/C(C)=N/N=C(C)/C(C)=N/N	37.8 µM (inactive)	97.1 µM (inactive)	> 100 µM (inactive)	–	> 100 µM (inactive)	> 100 µM (inactive)	> 100 µM (inactive)	> 100 µM (inactive)	> 100 µM (inactive)	> 100 µM (inactive)	> 100 µM (inactive)	20.9 µM (inactive)	> 100 µM (inactive)	> 100 µM (inactive)	> 100 µM (inactive)	> 100 µM (inactive)	0.248 µM (active)	> 100 µM (inactive)	> 100 µM (inactive)	> 100 µM (inactive)
CCOC(=O)c1nc2ccc(C(F)(F)F)cc2nc1Nc1ccc(Cl)c(Cl)c1	39.4 µM (inactive)	> 100 µM (inactive)	> 100 µM (inactive)	> 100 µM (inactive)	> 100 µM (inactive)	30.3 µM (inactive)	39.5 µM (inactive)	69.7 µM (inactive)	> 100 µM (inactive)	95.7 µM (inactive)	60 µM (inactive)	> 100 µM (inactive)	> 100 µM (inactive)	64.7 µM (inactive)	> 100 µM (inactive)	57.1 µM (inactive)	75.3 µM (inactive)	> 100 µM (inactive)	> 100 µM (inactive)	–
CCn1cc2c(=O)n3ncn(-c4ccc(Br)cc4)c3nc2n1	> 100 µM (inactive)	> 100 µM (inactive)	29.6 µM (inactive)	> 100 µM (inactive)	> 100 µM (inactive)	> 100 µM (inactive)	> 100 µM (inactive)	–	> 100 µM (inactive)	> 100 µM (inactive)	40.6 µM (inactive)	> 100 µM (inactive)	> 100 µM (inactive)	> 100 µM (inactive)	> 100 µM (inactive)	0.942 µM (active)	> 100 µM (inactive)	78.2 µM (inactive)	> 100 µM (inactive)	> 100 µM (inactive)
COc1cccc2cc(C(N)=O)c(=N)oc12	> 100 µM (inactive)	> 100 µM (inactive)	35.5 µM (inactive)	31.3 µM (inactive)	46.5 µM (inactive)	–	41.3 µM (inactive)	41.5 µM (inactive)	49.2 µM (inactive)	58.7 µM (inactive)	65.2 µM (inactive)	> 100 µM (inactive)	> 100 µM (inactive)	28.6 µM (inactive)	37.3 µM (inactive)	39.4 µM (inactive)	58.2 µM (inactive)	–	99.1 µM (inactive)	22.9 µM (inactive)
N#CCCC1C(C#N)C2CC1C1C3C=CC(C3)C21 (centres undefined)	> 100 µM (inactive)	> 100 µM (inactive)	> 100 µM (inactive)	> 100 µM (inactive)	> 100 µM (inactive)	> 100 µM (inactive)	> 100 µM (inactive)	–	> 100 µM (inactive)	> 100 µM (inactive)	> 100 µM (inactive)	> 100 µM (inactive)	> 100 µM (inactive)	> 100 µM (inactive)	> 100 µM (inactive)	> 100 µM (inactive)	> 100 µM (inactive)	> 100 µM (inactive)	> 100 µM (inactive)	> 100 µM (inactive)
O=c1cc(/C=C/c2ccc(O)c(O)c2)cc(/C=C/c2ccc(O)c(O)c2)o1	2.9 µM (inactive)	13.9 µM (inactive)	12.9 µM (inactive)	8.39 µM (inactive)	16.4 µM (inactive)	9.44 µM (inactive)	6.68 µM (inactive)	8.15 µM (inactive)	8.59 µM (inactive)	–	11.5 µM (inactive)	1.92 µM (inactive)	12.5 µM (inactive)	8.17 µM (inactive)	8.79 µM (inactive)	10.9 µM (inactive)	1.24 µM (inactive)	17.5 µM (inactive)	13.6 µM (inactive)	11.6 µM (inactive)
CO[C@H]1O[C@@H]2CO[C@@H](c3ccccc3)O[C@H]2C[C@]12CCC/C=C\CO2	13.9 µM (inactive)	12.6 µM (inactive)	–	27.4 µM (inactive)	13.4 µM (inactive)	25.8 µM (inactive)	18.7 µM (inactive)	14.6 µM (inactive)	17.5 µM (inactive)	15.9 µM (inactive)	16.7 µM (inactive)	12.9 µM (inactive)	22.2 µM (inactive)	12.7 µM (inactive)	18 µM (inactive)	25.9 µM (inactive)	13.7 µM (inactive)	22.6 µM (inactive)	20.6 µM (inactive)	15.9 µM (inactive)
COc1c2c(cc3occ(-c4ccc(CC=C(C)C)cc4)c(=O)c13)OC(C)(C)C=C2	10.6 µM (inactive)	76.2 µM (inactive)	> 100 µM (inactive)	> 100 µM (inactive)	> 100 µM (inactive)	35.4 µM (inactive)	59.2 µM (inactive)	–	11.7 µM (inactive)	10.3 µM (inactive)	> 100 µM (inactive)	10.7 µM (inactive)	39.4 µM (inactive)	26.4 µM (inactive)	16.5 µM (inactive)	> 100 µM (inactive)	8.55 µM (inactive)	81.8 µM (inactive)	45.6 µM (inactive)	11.2 µM (inactive)
CC(=O)Oc1c2ccsc2c(OC(C)=O)c2ccsc12	–	0.384 µM (active)	1.79 µM (inactive)	1.59 µM (inactive)	0.329 µM (active)	1.07 µM (active)	1.8 µM (inactive)	0.294 µM (active)	0.167 µM (active)	0.647 µM (active)	1.29 µM (inactive)	0.955 µM (active)	0.189 µM (active)	0.764 µM (active)	1.89 µM (inactive)	2.11 µM (inactive)	0.317 µM (active)	1.97 µM (inactive)	1.08 µM (active)	0.138 µM (active)

Reference: ChEMBL document CHEMBL1201862, “PubChem BioAssay data set” (2004)
